According to ChEMBL document CHEMBL5550142, “From lab to nature: Recent advancements in the journey of gastroprotective agents from medicinal chemistry to phytotherapy” (Eur J Med Chem, 2024):
pIC50: −log10 of the molar value. In brackets after ≈: the same amount, converted by molar mass.

test system: Rattus norvegicus; assay: Gastric ulcerogenic activity in Wistar rat assessed as reduction in gastric inflammation at 0.02 mg/kg, po relative to control; assay type: functional; parameters: scale not given: the % may be the effect or the level left; conditions: not given

Structure (SMILES)	Activity [%]
COc1nc(C[S+]([O-])c2nc3ccccc3[nH]2)nc2scc(-c3ccccc3)c12 (configuration not stated)	64.6
CN(C)c1ccc(/C=C/C(=C2C(=O)NC(=O)NC2=O)c2nc3ccccc3[nH]2)cc1	69.56
COc1ccc2[nH]c([S+]([O-])Cc3nc(Cl)c4c(-c5ccc(Cl)cc5)csc4n3)nc2c1 (configuration not stated)	72.6
COc1ccc2[nH]c([S+]([O-])Cc3nc(Cl)c4c(-c5ccccc5)csc4n3)nc2c1 (configuration not stated)	70.2
COc1ccc(/C=C/C(=C2C(=O)NC(=O)NC2=O)c2nc3ccccc3[nH]2)cc1	67.17
O=C1NC(=O)C(=C(/C=C/c2ccccc2)c2nc3ccccc3[nH]2)C(=O)N1	63.04
O=C1NC(=O)C(=C(/C=C/c2ccc(Cl)cc2)c2nc3ccccc3[nH]2)C(=O)N1	69.56

test system: not listed separately; assay: Inhibition of urease (unknown origin); parameters: species or system Homo sapiens; conditions: not given

Structure (SMILES)	pIC50
COc1ccc(C(=O)N/N=C/c2cc(O)ccc2O)cc1OC	4.72
COc1ccc(C(=O)N/N=C/c2ccc(O)c(O)c2)cc1OC	4.74
COc1ccc(C(=O)N/N=C/c2cc(O)cc(O)c2)cc1OC	5.08
CC(C)=CCOc1c2ccoc2cc2oc(=O)ccc12 [ISOIMPERATORIN]	4.44
COC(=O)c1ccc(/C=N/NC(=O)Cc2c[nH]c3ccccc23)cc1	5.41
COc1ccc(C(=O)N/N=C/c2cc(O)c(O)c(O)c2)cc1OC	4.90

target: Urease subunit alpha/Urease subunit beta (Helicobacter pylori (strain ATCC 700392 / 26695) (Campylobacterpylori), UniProt P69996); assay: Inhibition of Helicobacter pylori urease; assay type: protein-complex assay; conditions: not given
Sequence (P69996 whole entry): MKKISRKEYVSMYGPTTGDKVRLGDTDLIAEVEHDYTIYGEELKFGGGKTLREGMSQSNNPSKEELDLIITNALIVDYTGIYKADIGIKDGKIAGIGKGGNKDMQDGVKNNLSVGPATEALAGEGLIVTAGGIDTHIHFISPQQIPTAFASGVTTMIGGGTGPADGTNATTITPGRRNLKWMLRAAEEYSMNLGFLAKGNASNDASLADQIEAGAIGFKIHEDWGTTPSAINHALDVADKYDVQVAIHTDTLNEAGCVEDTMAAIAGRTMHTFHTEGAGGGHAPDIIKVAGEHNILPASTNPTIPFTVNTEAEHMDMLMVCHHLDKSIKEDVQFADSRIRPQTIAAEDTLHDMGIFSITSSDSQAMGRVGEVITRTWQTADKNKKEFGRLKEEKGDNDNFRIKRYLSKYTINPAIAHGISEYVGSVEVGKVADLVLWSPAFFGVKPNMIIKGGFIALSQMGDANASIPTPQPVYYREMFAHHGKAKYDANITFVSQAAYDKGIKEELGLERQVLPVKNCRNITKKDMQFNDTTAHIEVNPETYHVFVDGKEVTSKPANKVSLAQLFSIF
Sequence (P14916 whole entry, further chain): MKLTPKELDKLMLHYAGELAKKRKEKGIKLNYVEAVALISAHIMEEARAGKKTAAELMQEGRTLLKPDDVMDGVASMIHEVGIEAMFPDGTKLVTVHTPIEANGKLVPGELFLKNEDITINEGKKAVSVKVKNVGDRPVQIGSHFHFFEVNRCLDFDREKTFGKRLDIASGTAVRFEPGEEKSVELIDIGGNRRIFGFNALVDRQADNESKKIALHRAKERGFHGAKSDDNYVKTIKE

Structure (SMILES)	pIC50
O=C(Cc1c[nH]c2ccccc12)N/N=C/c1ccc(O)cc1O	5.92
O=C(Cc1c[nH]c2ccccc12)N/N=C/c1cccc(O)c1O	6.05
O=C(Cc1c[nH]c2ccccc12)N/N=C/c1ccc(O)c(O)c1	6.22

test system: Mus musculus; assay: Anti-ulcerogenic activity in ethanol-induced gastric ulcer mouse model assessed as reduction in ulcer formation at 250 mg/kg; assay type: functional; conditions: not given

Structure (SMILES)	Activity_index
Cc1cc(S(=O)(=O)N2CCN(S(C)(=O)=O)CC2)c2c(C)ccc(C(C)C)cc1-2	1.714
CCOC(=O)CN1CCN(S(=O)(=O)c2cc(C)c3cc(C(C)C)ccc(C)c2-3)CC1	1.875
C[C@]12CCC(=O)C=C1CC[C@@H]1[C@@H]2CC[C@]2(C)c3nc(NC4=C(C#N)C(c5ccc(Cl)cc5)C(C#N)=C(N)O4)sc3C[C@@H]12 (some centres not stated)	2.48
COc1ccc(C2C(C#N)=C(O)OC(Nc3nc4c(s3)C[C@H]3[C@@H]5CCC6=CC(=O)CC[C@]6(C)[C@H]5CC[C@]43C)=C2C#N)cc1 (some centres not stated)	2.48
Cc1cc(S(=O)(=O)N2CCN(S(=O)(=O)c3ccccc3)CC2)c2c(C)ccc(C(C)C)cc1-2	1.12

test system: Mus musculus; assay: Gastric ulcerogenic activity in Swiss albino mouse model assessed as inhibition of gastric inflammation at 250 mg/kg, po relative to control; assay type: functional; parameters: scale not given: the % may be the effect or the level left; conditions: not given

Structure (SMILES)	Activity [%]
CCOC(=O)/C(=N/Nc1ccccc1)Sc1nnc(-c2c([C@H]3CC[C@H]4[C@@H]5CC=C6C[C@H](O)CC[C@]6(C)[C@H]5CC[C@]34C)csc2N)n1-c1ccccc1	6.7
CCOC1=C(Sc2nnc(-c3c([C@H]4CC[C@H]5[C@@H]6CC=C7C[C@H](O)CC[C@]7(C)[C@H]6CC[C@]45C)csc3N)n2-c2ccccc2)C(c2ccccc2)C(C#N)=C(N)N1 (some centres not stated)	5.9
CC(=O)/C(=N/Nc1ccccc1)Sc1nnc(-c2c([C@H]3CC[C@H]4[C@@H]5CC=C6C[C@H](O)CC[C@]6(C)[C@H]5CC[C@]34C)csc2N)n1-c1ccccc1	6.2

test system: Helicobacter pylori; assay: Antibacterial activity against Helicobacter pylori ATCC 43504 assessed as minimum bactericidal concentration incubated for 24 hrs by broth micro-dilution method; assay type: functional; conditions: not given

Structure (SMILES)	MBC [µg/mL]
Cc1c(CSc2nc3ccccc3[nH]2)cccc1SCCN1CCOCC1	1 (≈ 2.5 µM)
Cc1c(CSc2nc3ccccc3[nH]2)cccc1SCCn1c([N+](=O)[O-])cnc1C	2 (≈ 4.55 µM)
Cc1c(CSc2nc3ccccc3[nH]2)cccc1SCCn1cncn1	4 (≈ 10.5 µM)
COCCOCCOCCOCCOCCSc1cccc(CSc2nc3ccccc3[nH]2)c1C	0.5 (≈ 0.96 µM)
COCCOCCOCCSc1cccc(CSc2nc3ccccc3[nH]2)c1C	0.5 (≈ 1.16 µM)

test system: not listed separately; assay: Cmax in C57BL/6 mouse administered via oral gavage by LC-MS/MS analysis; assay type: ADME; conditions: in vivo

Structure (SMILES)	Cmax [ng/mL]
Cc1c(CSc2nc3ccccc3[nH]2)cccc1SCCOC(=O)Nc1ccccc1	900

target: T1, Gastrin/cholecystokinin type B receptor (Homo sapiens, UniProt P32239); assay: Antagonist activity at human CCKBR; assay type: functional; conditions: not given
T1 sequence (P32239 whole entry): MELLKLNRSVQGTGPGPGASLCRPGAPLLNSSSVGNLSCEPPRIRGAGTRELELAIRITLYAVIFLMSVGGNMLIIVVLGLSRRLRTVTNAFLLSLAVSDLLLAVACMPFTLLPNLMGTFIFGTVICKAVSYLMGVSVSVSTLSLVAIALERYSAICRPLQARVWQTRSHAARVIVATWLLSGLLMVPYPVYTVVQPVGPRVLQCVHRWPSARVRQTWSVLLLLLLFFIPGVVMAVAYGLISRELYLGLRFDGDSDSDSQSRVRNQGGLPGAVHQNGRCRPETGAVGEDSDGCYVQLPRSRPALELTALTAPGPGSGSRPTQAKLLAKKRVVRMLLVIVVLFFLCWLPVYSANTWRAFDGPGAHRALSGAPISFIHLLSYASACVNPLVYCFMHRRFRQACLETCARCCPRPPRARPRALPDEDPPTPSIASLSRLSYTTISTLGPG

Structure (SMILES)	pIC50
CCCc1ccc([C@@H]2N[C@H](C(=O)OC)CC3c4ccccc4NC32)cc1 (some centres not stated)	3.85
COC(=O)[C@H]1Cc2c([nH]c3ccccc23)[C@H](c2ccc(C)cc2)N1	4.19

organism: Rattus norvegicus; assay: Anti-ulcer activity in stress-induced Sprague-Dawley rat […] model assessed as reduction in ulcer fomation; assay type: functional; parameters: Activity: concentration or dose not given beside the values; conditions: not given

Structure (SMILES)	Activity [%]
CC(C)Cc1ccc(C(C)C(=O)NS(=O)(=O)c2ccc(N)cc2)cc1 (configuration not stated)	8

test system: Helicobacter pylori; assay: Antibacterial activity against Helicobacter pylori assessed as inhibition of bacterial growth by broth micro-dilution assay; assay type: functional; conditions: not given

Structure (SMILES)	MIC90 [µg/mL]
Cc1c(CSc2nc3ccccc3[nH]2)cccc1SCCOC(=O)Nc1ccccc1	> 64

test system: Mus musculus; assay: Anti-inflammatory activity against carrageenan-induced hind paw edema Swiss albino mouse model assessed as reduction in paw thickness at 10 mg/kg, po relative to control; assay type: functional; parameters: scale not given: the % may be the effect or the level left; conditions: not given

Structure (SMILES)	Activity [%]
CCOC(=O)/C(=N/Nc1ccccc1)Sc1nnc(-c2c([C@H]3CC[C@H]4[C@@H]5CC=C6C[C@H](O)CC[C@]6(C)[C@H]5CC[C@]34C)csc2N)n1-c1ccccc1	0.96
CCOC1=C(Sc2nnc(-c3c([C@H]4CC[C@H]5[C@@H]6CC=C7C[C@H](O)CC[C@]7(C)[C@H]6CC[C@]45C)csc3N)n2-c2ccccc2)C(c2ccccc2)C(C#N)=C(N)N1 (some centres not stated)	0.18
CC(=O)/C(=N/Nc1ccccc1)Sc1nnc(-c2c([C@H]3CC[C@H]4[C@@H]5CC=C6C[C@H](O)CC[C@]6(C)[C@H]5CC[C@]34C)csc2N)n1-c1ccccc1	1.77
